We go through 31 molecules from patent US20260209215A1, “GLYCINE DERIVATIVES WITH P2X4 RECEPTOR-BLOCKING ACTIVITY AS DIAGNOSTICS AND FOR THE TREATMENT OF PAIN, INFLAMMATION, CANCER, AND OTHER P2X4 RECEPTOR-RELATED DISEASES” (RHEINISCHE-FRIEDRICH-WILHELMS-UNIVERSITÄT BONN, priority 2022, published 2026).

In the test the target is T1, P2X4 receptor (Homo sapiens, UniProt Q99571).
T1 construct: expressed in transfected cells; host or cells: 1321N1 astrocytoma cells, retroviral vector pQCXIN, G418 selection, monoclones
T1 sequence (Q99571 1-388): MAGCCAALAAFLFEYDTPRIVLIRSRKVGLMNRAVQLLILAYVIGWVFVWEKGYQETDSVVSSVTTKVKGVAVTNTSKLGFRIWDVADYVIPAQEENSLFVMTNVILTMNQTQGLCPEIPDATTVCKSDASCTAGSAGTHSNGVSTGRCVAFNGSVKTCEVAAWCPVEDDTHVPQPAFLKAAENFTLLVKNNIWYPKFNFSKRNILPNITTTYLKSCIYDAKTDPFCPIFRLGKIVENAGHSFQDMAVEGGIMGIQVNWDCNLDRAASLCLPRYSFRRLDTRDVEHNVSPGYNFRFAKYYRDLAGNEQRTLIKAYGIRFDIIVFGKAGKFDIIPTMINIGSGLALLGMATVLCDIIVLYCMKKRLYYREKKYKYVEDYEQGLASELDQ
The experiment in a line: Measurement of Ca2+ influx in transfected 1321N1 astrocytoma cells (P2X4 inhibitory potency). The conditions noted are these: agonist-mediated Ca2+ influx, FLUO-4, 1321N1 astrocytoma cells; antagonists added 30 min before agonist. In kind it is cell-based. The essentials:
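Stable 1321N1 astrocytoma cells expressing human P2X4, loaded with FLUO-4 AM (2.4 μM) in HBSS/HEPES pH 7.3 for 1 h at 23 °C. Antagonists added 30 min before agonist; fluorescence at 520 nm recorded for 30 s. Compounds tested at 7–8 concentrations spanning three log units.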

For `Cc1noc(-c2ccc(F)c(NCC(=O)N3CCc4c(C(O)C(F)(F)F)cccc43)c2)n1` (stereo not shown) [Example 41, 2-((2-fluoro-5-(3-methyl-1,2,4-oxadiazol-5-yl)phenyl)amino)-1-(4-(2,2,2-trifluoro-1-hydroxyethyl)indolin-1-yl)ethan-1-one], the IC50 – broadly, the concentration that inhibits the measured activity by half – lay in the range of 20 to 39 nM.
On to `O=C(CNc1cc(-c2nc(Cl)ns2)ccc1Cl)N1CCc2c(O)cccc21` [Example 39, 2-((2-chloro-5-(3-chloro-1,2,4-thiadiazol-5-yl)phenyl)amino)-1-(4-hydroxyindolin-1-yl) ethan-1-one], for which the IC50 was 20 to 39 nM.
Turning to `Cc1ccc(-c2nc(Br)ns2)cc1NCC(=O)N1CCc2c(OCC(C)(C)O)cccc21` [Example 14], the IC50 lay in the range of 0.1 to 19 nM.
Turning to `CCc1nsc(-c2ccc(C)c(NCC(=O)N3CCc4c(OCCOCCO)cccc43)c2)n1` [Example 19, 2-((5-(3-ethyl-1,2,4-thiadiazol-5-yl)-2-methylphenyl)amino)-1-(4-(2-(2-hydroxyethoxy)ethoxy)indolin-1-yl)ethan-1-one], the half-maximal inhibitory concentration (IC50) was 0.1 to 19 nM.
The figure for `Cc1nsc(-c2ccc(C)c(NCC(=O)N3CCc4c3cccc4C(C)(C)OC(=O)C(O)CO)c2)n1` (stereo not shown) [Example 67, 2-(1-((2-methyl-5-(3-methyl-1,2,4-thiadiazol-5-yl)phenyl)glycyl)indolin-4-yl)propan-2-yl 2,3-dihydroxy-propanoate] is 20 to 39 nM; for `Cc1nsc(-c2ccc(C)c(NCC(=O)N3CCc4c(C(N)C(F)(F)F)cccc43)c2)n1` (stereo not shown) [Example 88, 1-(4-(1-amino-2,2,2-trifluoroethyl)indolin-1-yl)-2-((2-methyl-5-(3-methyl-1,2,4-thiadiazol-5-yl)phenyl)-amino)ethan-1-one] it is 40 to 69 nM; for `COc1ccc2c(n1)CCN2C(=O)CNc1cc(-c2nc(C)ns2)ccc1C` [Example 42, 1-(5-methoxy-2,3-dihydro-1H-pyrrolo[3,2-b]pyridin-1-yl)-2-((2-methyl-5-(3-methyl-1,2,4-thiadiazol-5-yl)phenyl)-amino)ethan-1-one] it is 20 to 39 nM.
The figure for `Cc1nsc(-c2ccc(C)c(NCC(=O)N3CCc4c(N)cccc43)c2)n1` [Example 74, 1-(4-aminoindolin-1-yl)-2-((2-methyl-5-(3-methyl-1,2,4-thiadiazol-5-yl)phenyl)amino)ethan-1-one] is 20 to 39 nM.
`Cc1nsc(-c2ccc(C)c(NCC(=O)N3CCc4c(NCC(C)(C)O)cccc43)c2)n1` [Example 44, 1-(4-((2-hydroxy-2-methylpropyl)amino)indolin-1-yl)-2-((2-methyl-5-(3-methyl-1,2,4-thiadiazol-5-yl)phenyl)-amino)ethan-1-one] displayed an IC50 of 20 to 39 nM.
`Cc1nsc(-c2ccc(C)c(NCC(=O)N3CCc4c3cccc4C(C)(O)CO)c2)n1` (racemic) [Example 62, 1-(4-(1,2-dihydroxypropan-2-yl)indolin-1-yl)-2-((2-methyl-5-(3-methyl-1,2,4-thiadiazol-5-yl)phenyl)amino)ethan-1-one] registered an IC50 of 0.1 to 19 nM.
In turn, `Cc1nsc(-c2ccc(C)c(NCC(=O)N3CCc4c(-c5cccnc5)cccc43)c2)n1` [Example 32, 2-((2-methyl-5-(3-methyl-1,2,4-thiadiazol-5-yl)phenyl)amino)-1-(4-(pyridin-3-yl)indolin-1-yl)ethan-1-one] yielded an IC50 of 0.1 to 19 nM.
For the molecule `COC(=O)C1CN(C(=O)CNc2cc(-c3nc(C)ns3)ccc2C)c2ccccc21` (stereo not shown) [Example 57, methyl 1-((2-methyl-5-(3-methyl-1,2,4-thiadiazol-5-yl)-phenyl)glycyl)indoline-3-carboxylate], the IC50 is greater than 100 nM.
Regarding `COc1ccc(-c2nc(C)ns2)cc1NCC(=O)c1c[nH]c2c(OC)cccc12` [Example 93, 1-(7-methoxy-1H-indol-3-yl)-2-((2-methoxy-5-(3-methyl-1,2,4-thiadiazol-5-yl)phenyl)-amino)ethan-1-one], the 50% inhibitory concentration (IC50) was in the range of 0.1 to 19 nM.
`CCc1nsc(-c2ccc(F)c(NCC(=O)N3CCc4c(C(C)O)cccc43)c2)n1` (stereo not shown) [Example 21, 2-((5-(3-ethyl-1,2,4-thiadiazol-5-yl)-2-fluorophenyl)amino)-1-(4-(1-hydroxyethyl)indolin-1-yl)ethan-1-one]: the IC50 is 0.1 to 19 nM.
`Cc1noc(-c2ccc(F)c(NCC(=O)N3CCc4c3cccc4C(C)(C)O)c2)n1` [Example 53, 2-((2-fluoro-5-(3-methyl-1,2,4-oxadiazol-5-yl)phenyl)amino)-1-(4-(2-hydroxypropan-2-yl)-indolin-1-yl)ethan-1-one] displayed a 50% inhibitory concentration (IC50) of 20 to 39 nM.
For the molecule `CCc1nsc(-c2ccc(F)c(NCC(=O)N3CCc4c(N5CCC(O)C5)cccc43)c2)n1` (stereo not shown) [Example 71, 2-((5-(3-ethyl-1,2,4-thiadiazol-5-yl)-2-fluorophenyl)amino)-1-(4-(3-hydroxypyrrolidin-1-yl)indolin-1-yl)ethan-1-one], the IC50 fell in the range of 0.1 to 19 nM.
The molecule `CCc1nsc(-c2ccc(C)c(NCC(=O)N3CCc4c(OC(F)(F)C(=O)O)cccc43)c2)n1` [Example 87, 2-((1-((5-(3-ethyl-1,2,4-thiadiazol-5-yl)-2-methyl-phenyl)glycyl)indolin-4-yl)oxy)-2,2-difluoro-acetic acid] registered an IC50 of 40 to 69 nM.
`Cc1nsc(-c2ccc(C)c(NCC(=O)N3CCc4c(N5CCC6(CC5)COC6)cccc43)c2)n1` [Example 23, 1-(4-(2-oxa-7-azaspiro[3.5]nonan-7-yl)indolin-1-yl)-2-((2-methyl-5-(3-methyl-1,2,4-thiadiazol-5-yl)phenyl)-amino)ethan-1-one] returned an IC50 of 0.1 to 19 nM.
`CCn1nnc(-c2ccc(OC)c(NCC(=O)N3CCc4c(OC)cccc43)c2)n1` [Example 5, 2-((5-(2-ethyl-2H-tetrazol-5-yl)-2-methoxyphenyl)amino)-1-(4-methoxyindolin-1-yl)ethan-1-one] registered an IC50 of 20 to 39 nM.
Molecule `COc1cccc2c1CCN2C(=O)CNc1cc(-c2nc(C)ns2)ccc1F` [Example 34, 2-((2-fluoro-5-(3-methyl-1,2,4-thiadiazol-5-yl)phenyl)amino)-1-(4-methoxyindolin-1-yl)ethan-1-one] yielded an IC50 of 20 to 39 nM.
Then `C=Cc1nsc(-c2ccc(C)c(NCC(=O)N3CCc4c(OCCOCCO)cccc43)c2)n1` [Example 18, 1-(4-(2-(2-hydroxyethoxy)ethoxy)indolin-1-yl)-2-((2-methyl-5-(3-vinyl-1,2,4-thiadiazol-5-yl)phenyl)amino) ethan-1-one], with 0.1 to 19 nM; and `Cc1nsc(-c2ccc(C)c(NCC(=O)N3CCc4c3cccc4N(S(C)(=O)=O)S(C)(=O)=O)c2)n1` [Example 78, N-(1-((2-methyl-5-(3-methyl-1,2,4-thiadiazol-5-yl)phenyl)glycyl)indolin-4-yl)-N-(methylsulfonyl) methanesulfonamide], with 0.1 to 19 nM.
Consider `Cc1nsc(-c2ccc(C)c(NCC(=O)N3CCc4c(C(C)O)cccc43)c2)n1` (stereo not shown) [Example 29, 1-(4-(1-hydroxyethyl)indolin-1-yl)-2-((2-methyl-5-(3-methyl-1,2,4-thiadiazol-5-yl)phenyl)amino)ethan-1-one], for which the IC50 was in the range of 20 to 39 nM.
`CC(=O)Nc1cccc2c1CCN2C(=O)CNc1cc(-c2nc(C)ns2)ccc1C` [Example 76, N-(1-((2-methyl-5-(3-methyl-1,2,4-thiadiazol-5-yl)phenyl)-glycyl)indolin-4-yl) acetamide] came in with an IC50 of 0.1 to 19 nM.
Molecule `Cc1noc(-c2ccc(C)c(NCC(=O)N3CCc4c3cccc4N3C(=O)CNC3=O)c2)n1` [Example 83, 3-(1-((2-methyl-5-(3-methyl-1,2,4-oxadiazol-5-yl)phenyl)glycyl)indolin-4-yl)imidazolidine-2,4-dione] returned an IC50 of 20 to 39 nM.
`Cc1noc(-c2ccc(F)c(NCC(=O)N3CCc4c3cccc4C(C)(O)CO)c2)n1` (stereo not shown) [Example 60, 1-(4-(1,2-dihydroxypropan-2-yl)indolin-1-yl)-2-((2-fluoro-5-(3-methyl-1,2,4-oxadiazol-5-yl)phenyl)amino)ethan-1-one] displayed an IC50 of 40 to 69 nM.
`Cc1nc(-c2ccc(C)c(NCC(=O)c3c[nH]c4ccccc34)c2)no1` [Example 106, 1-(1H-indol-3-yl)-2-((2-methyl-5-(5-methyl-1,2,4-oxadiazol-3-yl)phenyl)amino)ethan-1-one] showed an IC50 of 40 to 69 nM.
In turn, `CCc1noc(-c2ccc(OC)c(NCC(=O)c3cn(C)c4cc(OC)c(F)cc34)c2)n1` [Example 98, 2-((5-(3-ethyl-1,2,4-oxadiazol-5-yl)-2-methoxyphenyl)amino)-1-(5-fluoro-6-methoxy-1-methyl-1H-indol-3-yl) ethan-1-one] returned an IC50 of 0.1 to 19 nM.
On to `Cc1ccc(-c2ccc(C)c(NCC(=O)N3CCc4c(CO)cccc43)c2)o1` [Example 28, 1-(4-(hydroxymethyl)indolin-1-yl)-2-((2-methyl-5-(5-methylfuran-2-yl)phenyl)amino)ethan-1-one], for which the IC50 fell in the range of 0.1 to 19 nM.
Regarding `Cc1nsc(-c2ccc(C)c(NCC(=O)c3cn4c5c(cccc35)OCC(C)(O)C4)c2)n1` (stereo not shown) [Example 105, 1-(3-hydroxy-3-methyl-3,4-dihydro-2H-[1,4]oxazepino[2,3,4-hi]indol-7-yl)-2-((2-methyl-5-(3-methyl-1,2,4-thiadiazol-5-yl)phenyl)-amino)ethan-1-one], the IC50 was in the range of 20 to 39 nM.
In turn, `Cc1ccc(-c2ccc(C)c(NCC(=O)N3CCc4c(CO)cccc43)c2)nc1` [Example 116, 1-(4-(hydroxymethyl)indolin-1-yl)-2-((2-methyl-5-(5-methylpyridin-2-yl)phenyl)amino)ethan-1-one] returned an IC50 of 70 to 99 nM.
